Assay results taken from publication PMC11650766 (ACS Infectious Diseases, 2024).

Experiments:
Assay in all cases: iSPP stabilization in E. coli K12 lysate at […], LC-MS/MS
Assay type in all cases: cell-based
PBP1a (MrcA) = molecular target: T1, PBP1a (MrcA) (Escherichia coli, UniProt P02918)
T1 sequence (P02918 1-850): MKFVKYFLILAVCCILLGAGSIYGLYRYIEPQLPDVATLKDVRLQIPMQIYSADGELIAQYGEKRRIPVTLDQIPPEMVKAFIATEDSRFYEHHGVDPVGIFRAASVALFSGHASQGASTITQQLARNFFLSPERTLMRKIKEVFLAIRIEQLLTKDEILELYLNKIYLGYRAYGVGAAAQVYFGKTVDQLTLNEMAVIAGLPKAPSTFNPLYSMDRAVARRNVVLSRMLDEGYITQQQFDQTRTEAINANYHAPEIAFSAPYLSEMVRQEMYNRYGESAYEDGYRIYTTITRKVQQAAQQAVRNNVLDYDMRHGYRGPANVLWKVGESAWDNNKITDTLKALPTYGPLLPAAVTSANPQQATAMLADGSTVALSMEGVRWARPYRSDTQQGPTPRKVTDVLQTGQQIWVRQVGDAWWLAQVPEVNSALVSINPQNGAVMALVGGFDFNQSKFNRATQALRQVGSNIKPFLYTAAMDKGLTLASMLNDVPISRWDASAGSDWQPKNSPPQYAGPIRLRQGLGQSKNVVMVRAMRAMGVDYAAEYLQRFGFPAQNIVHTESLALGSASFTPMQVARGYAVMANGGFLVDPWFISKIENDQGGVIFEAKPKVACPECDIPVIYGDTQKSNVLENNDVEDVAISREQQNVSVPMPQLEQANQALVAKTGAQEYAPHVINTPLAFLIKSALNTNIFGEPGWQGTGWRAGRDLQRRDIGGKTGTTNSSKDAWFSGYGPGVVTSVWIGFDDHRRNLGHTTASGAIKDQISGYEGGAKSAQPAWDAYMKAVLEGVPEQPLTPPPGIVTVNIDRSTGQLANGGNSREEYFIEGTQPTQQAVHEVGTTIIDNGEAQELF

PBP4 (DacB) = PBP4 (DacB) (Escherichia coli, UniProt P24228)
Sequence of PBP4 (DacB) (P24228 21-477): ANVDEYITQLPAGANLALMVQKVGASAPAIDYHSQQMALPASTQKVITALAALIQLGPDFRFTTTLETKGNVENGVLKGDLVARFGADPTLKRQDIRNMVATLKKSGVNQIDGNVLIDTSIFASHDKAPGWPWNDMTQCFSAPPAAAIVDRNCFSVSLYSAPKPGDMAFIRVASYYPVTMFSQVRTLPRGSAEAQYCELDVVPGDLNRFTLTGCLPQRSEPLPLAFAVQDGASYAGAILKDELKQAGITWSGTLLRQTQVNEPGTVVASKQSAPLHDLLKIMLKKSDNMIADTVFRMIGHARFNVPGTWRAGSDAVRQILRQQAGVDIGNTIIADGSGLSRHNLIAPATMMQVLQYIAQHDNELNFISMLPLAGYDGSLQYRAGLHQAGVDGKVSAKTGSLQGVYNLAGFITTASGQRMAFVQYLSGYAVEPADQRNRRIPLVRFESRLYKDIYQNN

[1] = molecular target: RpoB (RNA polymerase β-subunit) (Escherichia coli, UniProt P0A8V2)
Sequence of RpoB (RNA polymerase β-subunit) (P0A8V2 whole entry): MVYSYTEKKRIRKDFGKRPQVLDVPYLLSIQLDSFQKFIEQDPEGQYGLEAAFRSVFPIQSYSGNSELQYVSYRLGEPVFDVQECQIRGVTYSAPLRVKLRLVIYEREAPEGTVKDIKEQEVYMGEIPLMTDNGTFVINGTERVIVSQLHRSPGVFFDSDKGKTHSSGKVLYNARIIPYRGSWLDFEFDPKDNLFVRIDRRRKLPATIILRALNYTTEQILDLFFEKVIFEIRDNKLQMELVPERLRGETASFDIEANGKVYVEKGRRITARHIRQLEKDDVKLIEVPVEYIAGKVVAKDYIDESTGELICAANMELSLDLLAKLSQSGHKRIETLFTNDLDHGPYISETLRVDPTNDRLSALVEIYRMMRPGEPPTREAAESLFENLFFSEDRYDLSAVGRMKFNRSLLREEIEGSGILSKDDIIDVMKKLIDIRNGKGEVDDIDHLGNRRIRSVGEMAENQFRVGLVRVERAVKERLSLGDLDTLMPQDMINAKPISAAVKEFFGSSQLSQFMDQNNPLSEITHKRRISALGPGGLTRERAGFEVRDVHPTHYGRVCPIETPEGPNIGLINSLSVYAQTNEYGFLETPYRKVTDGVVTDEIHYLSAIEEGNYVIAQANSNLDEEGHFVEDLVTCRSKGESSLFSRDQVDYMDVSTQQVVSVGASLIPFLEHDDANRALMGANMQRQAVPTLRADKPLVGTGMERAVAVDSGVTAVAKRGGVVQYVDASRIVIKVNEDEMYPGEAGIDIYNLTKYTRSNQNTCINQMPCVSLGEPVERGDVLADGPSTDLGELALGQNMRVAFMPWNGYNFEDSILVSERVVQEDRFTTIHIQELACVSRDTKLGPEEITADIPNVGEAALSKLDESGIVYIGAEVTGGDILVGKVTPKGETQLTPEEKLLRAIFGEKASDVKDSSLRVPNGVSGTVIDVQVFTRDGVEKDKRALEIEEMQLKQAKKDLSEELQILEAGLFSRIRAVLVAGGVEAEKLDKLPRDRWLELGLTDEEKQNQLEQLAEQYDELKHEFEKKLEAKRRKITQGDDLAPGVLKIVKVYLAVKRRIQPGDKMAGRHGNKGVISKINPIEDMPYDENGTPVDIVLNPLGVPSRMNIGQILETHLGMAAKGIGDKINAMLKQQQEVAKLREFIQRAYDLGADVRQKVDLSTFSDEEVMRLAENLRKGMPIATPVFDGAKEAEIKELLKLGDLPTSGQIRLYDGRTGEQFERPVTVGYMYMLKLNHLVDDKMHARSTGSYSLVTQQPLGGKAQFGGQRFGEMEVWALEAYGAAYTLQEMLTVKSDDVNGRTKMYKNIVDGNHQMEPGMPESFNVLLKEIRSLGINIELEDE
Sequence of RpoB (RNA polymerase β-subunit) (P0A8T7 whole entry partner): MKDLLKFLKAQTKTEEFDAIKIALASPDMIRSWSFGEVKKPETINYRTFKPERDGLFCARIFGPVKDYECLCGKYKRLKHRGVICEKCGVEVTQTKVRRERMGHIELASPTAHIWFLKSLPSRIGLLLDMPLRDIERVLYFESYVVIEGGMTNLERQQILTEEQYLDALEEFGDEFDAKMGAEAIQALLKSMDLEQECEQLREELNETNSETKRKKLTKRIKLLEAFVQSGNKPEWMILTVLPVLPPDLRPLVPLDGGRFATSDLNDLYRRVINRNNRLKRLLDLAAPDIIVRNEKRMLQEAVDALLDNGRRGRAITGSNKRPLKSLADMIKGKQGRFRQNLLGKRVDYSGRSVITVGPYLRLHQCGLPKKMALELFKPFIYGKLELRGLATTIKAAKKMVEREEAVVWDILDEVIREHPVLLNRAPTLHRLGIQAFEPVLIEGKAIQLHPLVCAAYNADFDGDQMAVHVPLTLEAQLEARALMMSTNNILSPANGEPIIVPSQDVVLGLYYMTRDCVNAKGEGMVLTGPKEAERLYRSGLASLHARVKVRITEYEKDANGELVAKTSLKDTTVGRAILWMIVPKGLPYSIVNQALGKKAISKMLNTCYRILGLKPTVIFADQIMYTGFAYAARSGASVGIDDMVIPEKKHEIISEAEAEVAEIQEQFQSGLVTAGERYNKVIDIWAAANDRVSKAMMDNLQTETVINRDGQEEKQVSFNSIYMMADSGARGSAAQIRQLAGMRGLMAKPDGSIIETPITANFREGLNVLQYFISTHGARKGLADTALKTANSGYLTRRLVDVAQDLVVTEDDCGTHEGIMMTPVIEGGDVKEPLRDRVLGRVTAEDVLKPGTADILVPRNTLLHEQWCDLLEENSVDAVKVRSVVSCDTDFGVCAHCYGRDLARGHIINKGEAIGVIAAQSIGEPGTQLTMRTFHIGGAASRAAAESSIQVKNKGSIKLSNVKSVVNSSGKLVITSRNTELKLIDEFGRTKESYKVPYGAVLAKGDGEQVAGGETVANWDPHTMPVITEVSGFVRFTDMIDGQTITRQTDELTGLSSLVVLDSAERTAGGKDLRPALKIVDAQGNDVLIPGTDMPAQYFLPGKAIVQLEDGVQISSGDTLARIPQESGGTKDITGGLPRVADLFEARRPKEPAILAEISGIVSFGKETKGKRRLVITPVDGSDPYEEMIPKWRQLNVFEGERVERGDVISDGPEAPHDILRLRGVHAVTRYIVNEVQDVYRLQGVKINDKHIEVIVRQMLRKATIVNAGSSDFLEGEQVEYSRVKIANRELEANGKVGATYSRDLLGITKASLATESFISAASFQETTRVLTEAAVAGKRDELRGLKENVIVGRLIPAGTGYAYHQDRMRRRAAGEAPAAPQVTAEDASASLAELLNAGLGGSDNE
Sequence of RpoB (RNA polymerase β-subunit) (P0A7Z4 whole entry partner): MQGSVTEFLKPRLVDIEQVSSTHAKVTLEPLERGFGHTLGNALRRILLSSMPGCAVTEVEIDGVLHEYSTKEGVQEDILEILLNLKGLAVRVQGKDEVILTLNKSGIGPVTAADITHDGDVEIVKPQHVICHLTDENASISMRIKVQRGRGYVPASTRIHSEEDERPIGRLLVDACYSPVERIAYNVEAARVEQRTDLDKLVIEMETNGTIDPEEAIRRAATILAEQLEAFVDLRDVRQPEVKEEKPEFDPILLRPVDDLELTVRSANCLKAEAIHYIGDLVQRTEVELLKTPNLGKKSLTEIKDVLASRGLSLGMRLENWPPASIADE

SMILES	iSPP stabilization in E. coli K12 lysate at 10 μM, LC-MS/MS (PBP1a (MrcA))	iSPP stabilization in E. coli K12 lysate at 10 μM, LC-MS/MS (PBP4 (DacB))	iSPP stabilization in E. coli K12 lysate at 10 μM, LC-MS/MS [1]
CC1(C)S[C@@H]2[C@H](NC(=O)[C@H](N)c3ccccc3)C(=O)N2[C@H]1C(=O)O [ampicillin]	Ampicillin led to a significant stabilization of PBP1a (MrcA) and PBP4 (DacB), the two top hits	Ampicillin led to a significant stabilization of PBP1a (MrcA) and PBP4 (DacB), the two top hits	–
CO[C@H]1/C=C/O[C@@]2(C)Oc3c(C)c(O)c4c(O)c(c(/C=N/N5CCN(C)CC5)c(O)c4c3C2=O)NC(=O)/C(C)=C\C=C\[C@H](C)[C@H](O)[C@@H](C)[C@@H](O)[C@@H](C)[C@H](OC(C)=O)[C@@H]1C [rifampicin]	–	–	for rifampicin, we observed (Figure 2A) the stabilization of other subunits within the RNAP complex in addition to the primary target RpoB
